Legend:
MCL-1 = MCL-1 expression in primary AML cells (real time PCR); type: cell-based, human
Description: MCL-1 expression in Δ^12-PGJ3 treated AML was examined. MCL-1 is an antiapoptotic gene that belongs to the Bcl-2 family. Total RNA and cDNA were isolated from primary AML cells as indicated above. MCl-1 expression was measured using real time PCR. (Hs01050896-ml, Applied Biosystems).

[1] = tested on: FV-LSCs (M34^+Kit^+Sca1^+); experiment: Apoptosis of FV-LSCs treated ex vivo (annexin V, flow cytometry); type: cell-based, mouse; details: 36 h
Description: Apoptosis of LSCs was performed using annexin V as described below in Supplementary Information and Methods.
On day 14 after infection, spleens were isolated and a single cell suspension of spleen cells was generated. The cells were filtered through a 70 μm sterile filter and flow-through cells were resuspended in RBC lysis buffer followed by centrifugation. Leukemia stem cells were isolated by FACS. Spleen cells were labeled with anti-Kit, Sca1 (BioLegend, San Diego, Calif.) and M34 antibodies. […] As indicated M34^+Kit^+Sca1^+ cells were cultured in Methocult media (Stem Cell Technologies Vancouver BC) M3334 supplemented with 200 ng/ml Sonic Hedgehog (Shh), 15 ng/ml bone morphogenetic protein-4 (BMP4) (both from R&D Systems Minneapolis, Minn.), and 50 ng/ml stem cell factor (SCF; Peprotech).
The LSCs were diluted in DMEM, resuspended using a 16-gauge needle, and collected by centrifugation. 1×10^5 cells were resuspended in 200 μl of binding buffer (0.1 M HEPES with 1.4 M NaCl, 25 mM CaCl2, pH 7.4). Annexin V FITC (BD Biosciences) was incubated with cells for 15 min on ice followed by flow cytometric analysis.
The cells were stained with annexin V-FITC and analyzed by flow cytometry. […] Means±s.e.m. *P<0.001 compared to vehicle (PBS). […] Inset: Effect of rosiglitazone on the apoptosis of LSC. Rosiglitazone (0.1-2.0 μM) was incubated with LSC in the culture media for 36 h as described earlier and the cells were subjected to annexin-V staining followed by flow cytometry. […] LSC were treated ex vivo with indicated concentrations of each compound for 36 h. Mean±s.e.m. shown *P<0.001.

p53 = p53 expression in BCR-ABL+ LSCs treated ex vivo; type: cell-based, mouse; details: 25 nM ex vivo
Survivin = Survivin expression in human AML sample (RT-PCR); type: cell-based; details: 6 h
Description: Survivin expression in the human AML sample post Δ^12-PGJ3 treatments was examined. Total RNA was isolated from AML cells with indicated treatments (for 6 h) using Trizol (Invitrogen) cDNA was generated using Superscript II (Invitrogen) and cDNA were quantified by RT-PCR using SYBR green PCR master mix and primers that amplify a 76 nt PCR product. A Taqman probe for GAPDH (Applied biosystems) was used.

[2] = biological target: T1, ligand-binding domain of human PPAPγ fused to yeast GAL4 DNA binding domain (Homo sapiens, UniProt P37231); experiment: PPARγ reporter assay in HEK293T cells (GAL4 fusion, pGalRE-Luc); type: cell-based; details: 0.01 μM to 1.0 μM
T1 construct: expressed in transfected cells; host or cells: HEK293T

[3] = tested on: MSCV-GFP^+ HSC transplanted mice (steady state hematopoiesis); experiment: Control mice transplanted with MSCV-GFP+ HSCs, treated; details: mouse, in vivo
Description: Induction of CML using MIGR-BCR-ABL retrovirus: MIGR-BCR-ABL and control MSCV-GFP retroviruses were obtained. […] C57BL/6 mice were treated with 5-fluorouracil (5-FU; 150 mg/Kg, Sigma, St. Louis, Mo.) to enrich for cycling HSCs. On day four after treatment bone marrow cells were harvested and infected with MIGR-BCR-ABL or MSCV-GFP control virus overnight in IMDM media containing 5% FCS and supplemented with 2.5 ng/ml IL-3 and 15 ng/ml SCF (R&D Systems Minneapolis, Minn.). 0.5×10^6 transduced cells were transplanted by retro-orbital injection into C57BL/6 recipient mice that were preconditioned with 950 Rads of irradiation. In order to increase the number of CML and control mice, 17 days after transplant GFP^+ spleen cells were isolated by FACS and 1×10^5 GFP^+ cells were transplanted into irradiated (950 Rads) secondary C57BL/6 recipients. Two weeks after transplant, mice were treated as indicated with CyPGs and vehicle control. For ex-vivo experiments, Kit^+Sca1^+Lin^−GFP^+ cells were isolated from the bone marrow or spleen of transplanted mice by FACS. The sorted cells were cultured in Methocult media M3334 (Stem Cell Technologies Vancouver BC) M3334 supplemented with Shh, SCF, and BMP4 and treated with the indicated CyPGs and vehicle controls for indicated time periods. […] The hematopoietic colonies (colony forming cells in culture, CFC) were scored. […]

NF-κB = NF-κB gel shift in LPS-treated RAW264.7 macrophages; type: cell-based, mouse; details: 0.25 or 1.0 μM, then LPS 100 ng/mL 4 h
Description: The effect of Δ^12-PGJ3 on NF-κB and PPAPγ was examined. RAW264.7 macrophages were pretreated with DMSO, Δ^12-PGJ3 at 0.25, or 1.0 μM and subsequently stimulated with 100 ng/mL E. coli LPS for 4 h. The nuclear extracts were prepared and the binding of NΦκB to a ^32P-labeled consensus double stranded oligonucleotide probe was examined using gel shift analysis. NS=non-specific band. Lanes 1-5 represent untreated, LPS alone, DMSO+LPS, Δ^12-PGJ3 (0.25 μM)+LPS, and Δ^12-PGJ3 (1 μM)+LPS, respectively. BCR-ABL LSCs were sorted from spleens, plated, and treated with PBS, 25 nM Δ^12-PGJ3, or 9,10-dihydro 15d-PGJ2 for 0, 2 or 6 h. The cells were harvested and nuclear extracts were prepared using standard techniques. Ten μg of nuclear protein was used from each sample for the gel-shift reaction. As a positive control for NF-κB, nuclear extract from LPS-treated murine (RAW264.7) macrophages was used. Anti-p50 Ab was used with this positive control for a supershift, and excess ‘cold’ probe was used with the positive control as a ‘cold competitor’. A Western blot analysis was performed of the above-mentioned nuclear extracts from BCR-ABL LSCs treated with PBS, Δ^12-PGJ3 or 9,10-dihydro-15d-PGJ2 for various time periods (0-6 h) probed with anti-p65 and anti-β-actin antibodies. […]

T1 sequence (P37231 238-503 limits assumed): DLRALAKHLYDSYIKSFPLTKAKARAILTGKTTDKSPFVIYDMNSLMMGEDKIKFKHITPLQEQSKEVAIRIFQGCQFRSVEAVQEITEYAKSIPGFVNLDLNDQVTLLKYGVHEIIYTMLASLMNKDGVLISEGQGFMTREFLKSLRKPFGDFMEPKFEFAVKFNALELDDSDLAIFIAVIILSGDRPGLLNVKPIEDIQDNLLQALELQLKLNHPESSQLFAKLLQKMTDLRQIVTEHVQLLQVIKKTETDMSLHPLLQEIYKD

For `CC/C=C\C[C@H](O)C/C=C1/C(=O)C=C[C@@H]1C/C=C\CCCC(=O)O` [Δ^12-PGJ3, Δ^12-prostaglandin J3], the MCL-1 expression (MCL-1) was “decreases the expression MCL1”, the “increase in apoptosis of FV-LSCs” value ([1]; 25 nM) was ~75% and the “apoptosis of FV-LSCs, dose response” value ([1]; annexin V) was “identical effect”. The “p53 mRNA” value (p53) was “increase in p53 transcription”, the survivin expression (Survivin) was “decreases the expression of survivin” and the “PPARγ activation in reporter assay” value [2] was “unable to activate PPARγ”. For the same compound, the “WBC counts, other hematological parameters, survival” value [3] was “had no effect on WBC counts or other hematological parameters or survival” and the “NF-κB pathway, gel shift” value (NF-κB) was “did not affect the NF-κB pathway”.

Source: patent publication US9623031B2, “Compositions, methods and kits for treating cancer” (priority 2011, dated 2017)
